Measurements taken from PMC8585833, “Serum concentrations of antidepressants, antipsychotics, and antiepileptics over the bariatric surgery procedure” (European Journal of Clinical Pharmacology, 2021).
Like-named read-outs stand apart in the source and are kept apart here.

Legend:
[1] = Dose-adjusted steady-state trough serum concentrations before and after low-calorie diet and bariatric surgery; assay type: in vivo, human; settings: for Reduction of dose-adjusted concentration on the last day of sampling: post-surgery versus pre-surgery, substances with samples from six or more participants; for Course of dose-adjusted concentration after surgery: following the low-calorie diet; for Change in dose-adjusted concentration over the pre-surgery low-calorie diet: after the pre-surgery diet, before surgery, median weight reduction 6 kg
Text: We designed the study as a naturalistic longitudinal, prospective case series with intra-individual comparisons of drug concentrations over time, before and up to 1 year after the surgical procedure.
The participants contributed blood samples to the current study during routine pre-surgery visits before, and post-surgery visits about 8 weeks, 6 months, and 1 year after, the surgery. Pre-surgery sampling generally occurred twice: at an initial preoperative assessment visit, and just before surgery. Between these visits, that is, before surgery, patients were required to adhere to a low-calorie diet and show a weight reduction. The samples were stored as serum in −80 °C at a biobank, and analysed after all samples had been collected.
Before every routine visit at which the sampling was to occur, we contacted the participants by telephone to systematically obtain information on the current dose as well as adherence to the drug treatment in question over the 2 preceding weeks. Samples were excluded from the data set if non-adherence less than four elimination half-lives prior to sampling was reported; exceptions were made for occasional missed doses of fluoxetine. Half-lives applied were those described for a drug or its metabolite in the summary of product characteristics. We also asked for and recorded concomitant drug treatment, weight, and smoking status. To be able to relate potential changes in concentration to health consequences, we asked the participants during the follow-up phone calls, using an open question, if anything had happened to their health since the last visit. To obtain trough blood concentrations, we strived to schedule the routine visits before lunchtime and the participants were instructed not to take morning tablets before the sampling.
Specific substances were analysed concomitantly, using clinical routine methods, at accredited laboratories at the Department of Clinical Chemistry, Sahlgrenska University Hospital, Gothenburg, Sweden, or (as for gabapentin, hydroxybupropion, mianserine, pregabalin, paroxetine and topiramate) at the Department of Clinical Pharmacology, St. Olav’s Hospital, Trondheim, Norway. Analysis methods were based on liquid chromatography/tandem mass spectrometry or (for lamotrigine and valproic acid) enzyme immunoassay.
Statistical analyses were performed using SPSS, version 23.0 (IBM SPSS Statistics for Windows, Armonk, NY, USA). Participants treated with the same substance before and after surgery, with one or more trough sample concentrations available, were included in the analysis. To allow interindividual and intraindividual comparisons, serum concentrations were adjusted for defined daily dose (DDD). For example, since DDD for citalopram is 20 mg, a DDD-adjusted citalopram concentration of 100 nmol/L could represent a measured concentration of 50, 100, or 200 nmol/L, given a daily dose of 10, 20, or 40 mg, respectively. To compare pre- to post-surgery concentrations, as well as pre- to post-diet concentrations, we used Wilcoxon signed rank test for substances with samples available for six or more individuals. We used Spearman’s correlation to explore the relationship between the ratio of the post-/pre-diet concentrations and (i) the distribution coefficient for the drug in question, i.e., the logarithm of the ratio of its concentration in a lipophilic and a hydrophilic solution (logD), as well as (ii) the weight loss in kilograms for pregabalin.

[2] = source not stated, cited from earlier work
[3] = historical data or matched non-surgery subjects as controls; cited from earlier work
[4] = Table 2A, trough serum, adjusted for dose in DDDs
[5] = Table 2A, trough serum, adjusted for dose in DDDs, last observation carried forward, median 379 days after surgery
[6] = Table 2B, trough serum, adjusted for dose in DDDs, after pre-surgery low-calorie diet
[7] = Table 2B, trough serum, adjusted for dose in DDDs, before low-calorie diet
[8] = Table 2A, antiepileptics, trough serum, adjusted for dose in DDDs
[9] = Table 2A, antiepileptics, trough serum, adjusted for dose in DDDs, last observation carried forward, median 379 days after surgery
[10] = Table 2B, antiepileptics, trough serum, adjusted for dose in DDDs, after pre-surgery low-calorie diet
[11] = Table 2B, antiepileptics, trough serum, adjusted for dose in DDDs, before low-calorie diet
[12] = human, in vivo, 379 days after surgery (median), trough

CN(C)CCC=C1c2ccccc2CCc2ccccc21 [Amitriptyline]
Dose-adjusted drug concentration Median (IQR), Pre-diet/pre-surgery [1, 4]: 283 (N/A) nmol/L
Dose-adjusted drug concentration Median (IQR), Post-surgery [1, 5]: 218 (N/A) nmol/L
Dose-adjusted drug concentration Median (IQR), post-diet [1, 6]: 279 (N/A) nmol/L
Dose-adjusted drug concentration Median (IQR), pre-diet [1, 7]: 283 (N/A) nmol/L

CN(C)CCCC1(c2ccc(F)cc2)OCc2cc(C#N)ccc21 (stereo not drawn) [Citalopram]
Concentration, Post-surgery ([1]; Case 1, GBP, day +252, drug dose 10 mg): 69 nM
Concentration, Post-surgery ([1]; Case 1, GBP, day +374, drug dose 20 mg): 158 nM
Concentration, Baseline ([1]; Case 1, GBP, drug dose 10 mg): 137 nM
Concentration, Post-surgery ([1]; Case 2, GBP, day +178, drug dose 10 mg): 42 nM
Concentration, Post-surgery ([1]; Case 2, GBP, day +386, drug dose 20 mg): 90 nM
Concentration, Baseline ([1]; Case 2, GBP, drug dose 10 mg): 89 nM
Reduction of dose-adjusted concentration on the last day of sampling [1]: 19%

CNCC[C@H](Oc1cccc2ccccc12)c1cccs1 [Duloxetine]
Course of dose-adjusted concentration after surgery [1]: continued to decrease
Change in dose-adjusted concentration over the pre-surgery low-calorie diet [1]: varied
Dose-adjusted drug concentration Median (IQR), Pre-diet/pre-surgery ([1]; human, in vivo): 127 (96–203) nmol/L
Dose-adjusted drug concentration Median (IQR), post-diet ([1]; human, in vivo): 105 (64–235) nmol/L
Dose-adjusted drug concentration Median (IQR), pre-diet ([1]; human, in vivo): 127 (96–203) nmol/L
concentration at 379 days after surgery (median), trough ([1]; human, in vivo): 82 nM
Reduction of dose-adjusted concentration on the last day of sampling [1]: 35%
logD ([2]; octanol/water, pH 7.4): 1.54

CNCCC(Oc1ccc(C(F)(F)F)cc1)c1ccccc1 (stereo not drawn) [Fluoxetine]
Course of dose-adjusted concentration after surgery [1]: continued to increase also after surgery
Dose-adjusted drug concentration Median (IQR), Pre-diet/pre-surgery ([1]; human, in vivo): 221 (157–371) nmol/L
Dose-adjusted drug concentration Median (IQR), post-diet ([1]; human, in vivo): 263 (182–333) nmol/L
Dose-adjusted drug concentration Median (IQR), pre-diet ([1]; human, in vivo): 259 (147–379) nmol/L
concentration at 379 days after surgery (median), trough ([1]; human, in vivo): 294 nM

NCC1(CC(=O)O)CCCCC1 [Gabapentin]
Dose-adjusted drug concentration Median (IQR), Pre-diet/pre-surgery [1, 8]: 34 (N/A) µmol/L
Dose-adjusted drug concentration Median (IQR), Post-surgery [1, 9]: 35 (N/A) µmol/L
Dose-adjusted drug concentration Median (IQR), post-diet [1, 10]: 43 (N/A) µmol/L
Dose-adjusted drug concentration Median (IQR), pre-diet [1, 11]: 28 (N/A) µmol/L
Change in dose-adjusted concentration over the pre-surgery low-calorie diet [1]: increased

C[C@H]1NC(C)(C)CO[C@]1(O)c1cccc(Cl)c1 [Hydroxybupropion]
Dose-adjusted drug concentration Median (IQR), Pre-diet/pre-surgery [1, 4]: 3,997 (N/A) nmol/L
Dose-adjusted drug concentration Median (IQR), Post-surgery [1, 5]: 3,298 (N/A) nmol/L
Dose-adjusted drug concentration Median (IQR), post-diet [1, 6]: 3,067 (N/A) nmol/L
Dose-adjusted drug concentration Median (IQR), pre-diet [1, 7]: 2,732 (N/A) nmol/L

Nc1nnc(-c2cccc(Cl)c2Cl)c(N)n1 [Lamotrigine]
Dose-adjusted drug concentration Median (IQR), Pre-diet/pre-surgery [1, 8]: 17 (15–23) µmol/L
Dose-adjusted drug concentration Median (IQR), post-diet [1, 10]: 23 (19–29) µmol/L
Dose-adjusted drug concentration Median (IQR), pre-diet [1, 11]: 17 (15–25) µmol/L
Change in dose-adjusted concentration over the pre-surgery low-calorie diet [1]: increased
concentration at 379 days after surgery (median), trough ([1]; human, oral, Table 2A, antiepileptics, trough serum, adjusted for dose in DDDs, last observation carried forward, median 379 days after surgery, read-out: Dose-adjusted drug concentration Median (IQR), Post-surgery): 18000 nM

CN1CCN2c3ncccc3Cc3ccccc3C2C1 (stereo not drawn) [Mirtazapine]
Concentration, Post-surgery ([1]; Case 3, GBP, day +68, drug dose 15 mg): 30 nM
Concentration, Post-surgery ([1]; Case 3, GBP, day +368, drug dose 30 mg): 203 nM
Concentration, Baseline ([1]; Case 3, GBP, drug dose 15 mg): 96 nM
Concentration, Post-surgery ([1]; Case 4, Sleeve, day 213, drug dose 30 mg): 87 nM
Concentration, Post-surgery ([1]; Case 4, Sleeve, day 393, drug dose 45 mg): 119 nM
Concentration, Baseline ([1]; Case 4, Sleeve, drug dose 30 mg): 140 nM
Change in dose-adjusted concentration over the pre-surgery low-calorie diet [1]: decreased
Dose-adjusted drug concentration Median (IQR), Pre-diet/pre-surgery ([1]; human, in vivo): 148 (131–170) nmol/L
Dose-adjusted drug concentration Median (IQR), post-diet ([1]; human, in vivo): 76 (50–102) nmol/L
Dose-adjusted drug concentration Median (IQR), pre-diet ([1]; human, in vivo): 138 (120–157) nmol/L
concentration at 379 days after surgery (median), trough ([1]; human, in vivo): 88 nM
Reduction of dose-adjusted concentration on the last day of sampling [1]: 41%

Cc1cc2c(s1)Nc1ccccc1N=C2N1CCN(C)CC1 [Olanzapine]
Dose-adjusted drug concentration Median (IQR), Pre-diet/pre-surgery ([1]; human, in vivo): 113 (N/A) nmol/L

Fc1ccc([C@@H]2CCNC[C@H]2COc2ccc3c(c2)OCO3)cc1 [Paroxetine]
Dose-adjusted drug concentration Median (IQR), Pre-diet/pre-surgery ([1]; human, in vivo): 22 (N/A) nmol/L
Dose-adjusted drug concentration Median (IQR), post-diet ([1]; human, in vivo): 69 (N/A) nmol/L
Dose-adjusted drug concentration Median (IQR), pre-diet ([1]; human, in vivo): 22 (N/A) nmol/L
Dose-adjusted drug concentration Median (IQR), Post-surgery [1, 12]: 167 (N/A) nmol/L

OCCOCCN1CCN(C2=Nc3ccccc3Sc3ccccc32)CC1 [Quetiapine]
Change in dose-adjusted concentration over the pre-surgery low-calorie diet [1]: decreased
Dose-adjusted drug concentration Median (IQR), Pre-diet/pre-surgery ([1]; human, in vivo): 848 (N/A) nmol/L
Dose-adjusted drug concentration Median (IQR), post-diet ([1]; human, in vivo): 260 (N/A) nmol/L
Dose-adjusted drug concentration Median (IQR), pre-diet ([1]; human, in vivo): 848 (N/A) nmol/L
Dose-adjusted drug concentration Median (IQR), Post-surgery [1, 12]: 239 (N/A) nmol/L

CN[C@H]1CC[C@@H](c2ccc(Cl)c(Cl)c2)c2ccccc21 [Sertraline]
Concentration, Post-surgery ([1]; Case 3, GBP, day +68, drug dose 200 mg): 66 nM
Concentration, Post-surgery ([1]; Case 3, GBP, day +368, drug dose 200 mg): 78 nM
Concentration, Baseline ([1]; Case 3, GBP, drug dose 200 mg): 130 nM
Change in dose-adjusted concentration over the pre-surgery low-calorie diet [1]: decreased
Dose-adjusted drug concentration Median (IQR), Pre-diet/pre-surgery ([1]; human, in vivo): 51 (27–84) nmol/L
Dose-adjusted drug concentration Median (IQR), post-diet ([1]; human, in vivo): 39 (23–53) nmol/L
Dose-adjusted drug concentration Median (IQR), pre-diet ([1]; human, in vivo): 66 (43–87) nmol/L
concentration at 379 days after surgery (median), trough ([1]; human, in vivo): 25 nM
Reduction of dose-adjusted concentration on the last day of sampling [1]: 51%

CC1(C)O[C@@H]2[C@@H](CO[C@@]3(COS(N)(=O)=O)OC(C)(C)O[C@@H]23)O1 [Topiramate]
Dose-adjusted drug concentration Median (IQR), Pre-diet/pre-surgery [1, 8]: 33 (N/A) µmol/L
Dose-adjusted drug concentration Median (IQR), Post-surgery [1, 9]: 37 (N/A) µmol/L
Dose-adjusted drug concentration Median (IQR), post-diet [1, 10]: 31 (N/A) µmol/L
Dose-adjusted drug concentration Median (IQR), pre-diet [1, 11]: 39 (N/A) µmol/L

CCCC(CCC)C(=O)O [Valproic acid]
Dose-adjusted drug concentration Median (IQR), Pre-diet/pre-surgery [1, 8]: 533 (N/A) µmol/L
Dose-adjusted drug concentration Median (IQR), Post-surgery [1, 9]: 529 (N/A) µmol/L
Dose-adjusted drug concentration Median (IQR), post-diet [1, 10]: 759 (N/A) µmol/L
Dose-adjusted drug concentration Median (IQR), pre-diet [1, 11]: 737 (N/A) µmol/L

COc1ccc(C(CN(C)C)C2(O)CCCCC2)cc1 (stereo not drawn) [Venlafaxine]
Dose-adjusted drug concentration Median (IQR), Pre-diet/pre-surgery [1, 4]: 173 (88–443) nmol/L
Dose-adjusted drug concentration Median (IQR), post-diet [1, 6]: 132 (87–215) nmol/L
Dose-adjusted drug concentration Median (IQR), pre-diet [1, 7]: 172 (79–399) nmol/L
concentration at 379 days after surgery (median), trough ([1]; human, oral, Table 2A, trough serum, adjusted for dose in DDDs, last observation carried forward, median 379 days after surgery, read-out: Dose-adjusted drug concentration Median (IQR), Post-surgery): 168 nM

CN(C)C(=N)N=C(N)N [metformin]
Concentration change after the bariatric surgery procedure [3]: appeared to increase

COc1c(N2C[C@@H]3CCCN[C@@H]3C2)c(F)cc2c(=O)c(C(=O)O)cn(C3CC3)c12 [moxifloxacin]
Concentration change after the bariatric surgery procedure [3]: appeared to increase

NCCC(Oc1ccc(C(F)(F)F)cc1)c1ccccc1 (stereo not drawn) [norfluoxetine]
Course of dose-adjusted concentration after surgery [1]: continued to increase also after surgery

CO[C@H]1C[C@@H]2CC[C@@H](C)[C@@](O)(O2)C(=O)C(=O)N2CCCC[C@H]2C(=O)O[C@H]([C@H](C)C[C@@H]2CC[C@@H](O)[C@H](OC)C2)CC(=O)[C@H](C)/C=C(\C)[C@@H](O)[C@@H](OC)C(=O)[C@H](C)C[C@H](C)/C=C/C=C/C=C/1C [sirolimus]
Concentration change after the bariatric surgery procedure [3]: appeared to decrease
logD ([2]; selection limit for extremely hydrophilic or extremely lipophilic substances in literature search): > 4

CC/C(=C(\c1ccccc1)c1ccc(OCCN(C)C)cc1)c1ccccc1 [tamoxifen]
Concentration change after the bariatric surgery procedure [3]: appeared to decrease
